According to paper PMC9133015 (Nature Communications, 2022):
Values joined by “and” are separate entries in the source; they are usually repeats but may differ in a detail not shown here. Equal entries are not always repeated. Where two headings read alike, the source gives them in different places.

Experiments:
Test in all cases: Kinase inhibitor specificity profiling (Reaction Biology Corporation)
Format in all cases: biochemical
Design in all cases: % Enzyme Activity (relative to DMSO controls): concentration or dose not given beside the values
[1] = target: T1, panel of 370 protein kinases (Homo sapiens, UniProt Q96GD4); settings: 2 h, kinase AURORA B; read-out: % Enzyme Activity (relative to DMSO controls)
T1 construct: purchased Reaction Biology Corporation (assay service)
T1 sequence (Q96GD4 whole entry): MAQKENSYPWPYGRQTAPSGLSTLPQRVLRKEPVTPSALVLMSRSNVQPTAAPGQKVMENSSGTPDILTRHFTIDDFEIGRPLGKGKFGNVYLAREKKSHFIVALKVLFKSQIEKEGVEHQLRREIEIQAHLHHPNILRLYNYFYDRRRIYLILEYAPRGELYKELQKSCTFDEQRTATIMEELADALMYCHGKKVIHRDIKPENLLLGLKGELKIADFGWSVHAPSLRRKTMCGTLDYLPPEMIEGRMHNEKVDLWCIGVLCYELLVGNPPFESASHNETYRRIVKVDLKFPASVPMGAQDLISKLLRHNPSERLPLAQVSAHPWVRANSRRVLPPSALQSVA

[2] = target: T2, panel of 370 protein kinases (Homo sapiens, UniProt P06239); settings: 2 h, kinase LCK; read-out: % Enzyme Activity (relative to DMSO controls)
T2 construct: purchased Reaction Biology Corporation (assay service)

[3] = target: T3, panel of 370 protein kinases (Homo sapiens, UniProt Q9BXA7); settings: 2 h, kinase STK22D/TSSK1; read-out: % Enzyme Activity (relative to DMSO controls)
T3 construct: purchased Reaction Biology Corporation (assay service)

[4] = target: T4, panel of 370 protein kinases (Homo sapiens, UniProt Q96BR1); settings: 2 h, kinase SGK3/SGKL; read-out: % Enzyme Activity (relative to DMSO controls)
T4 construct: purchased Reaction Biology Corporation (assay service)

[5] = target: T5, panel of 370 protein kinases (Homo sapiens, UniProt P31751); settings: 2 h, kinase AKT2; read-out: % Enzyme Activity (relative to DMSO controls)
T5 construct: purchased Reaction Biology Corporation (assay service)
T5 sequence (P31751 whole entry): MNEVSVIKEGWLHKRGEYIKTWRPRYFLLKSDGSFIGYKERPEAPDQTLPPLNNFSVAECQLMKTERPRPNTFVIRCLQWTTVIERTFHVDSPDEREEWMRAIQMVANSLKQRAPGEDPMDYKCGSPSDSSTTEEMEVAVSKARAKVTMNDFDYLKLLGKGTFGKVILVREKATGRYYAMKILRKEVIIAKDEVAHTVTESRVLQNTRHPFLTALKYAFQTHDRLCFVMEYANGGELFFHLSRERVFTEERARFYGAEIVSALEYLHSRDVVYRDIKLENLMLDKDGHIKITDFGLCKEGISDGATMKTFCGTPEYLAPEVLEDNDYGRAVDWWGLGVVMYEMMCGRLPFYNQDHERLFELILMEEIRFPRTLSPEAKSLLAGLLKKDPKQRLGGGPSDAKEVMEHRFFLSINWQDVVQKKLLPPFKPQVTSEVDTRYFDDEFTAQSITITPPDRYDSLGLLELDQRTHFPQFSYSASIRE

[6] = target: T6, panel of 370 protein kinases (Homo sapiens, UniProt P15735); settings: 2 h, kinase PHKg2; read-out: % Enzyme Activity (relative to DMSO controls)
T6 construct: purchased Reaction Biology Corporation (assay service)

[7] = target: T7, panel of 370 protein kinases (Homo sapiens, UniProt Q99683); settings: 2 h, kinase ASK1/MAP3K5; read-out: % Enzyme Activity (relative to DMSO controls)
T7 construct: purchased Reaction Biology Corporation (assay service)

[8] = target: T8, panel of 370 protein kinases (Homo sapiens, UniProt P05771); settings: 2 h, kinase PKCb1; read-out: % Enzyme Activity (relative to DMSO controls)
T8 construct: purchased Reaction Biology Corporation (assay service)

[9] = target: T9, panel of 370 protein kinases (Homo sapiens, UniProt O15530); settings: 2 h, kinase PDK1/PDPK1; read-out: % Enzyme Activity (relative to DMSO controls)
T9 construct: purchased Reaction Biology Corporation (assay service)
T9 sequence (O15530 whole entry): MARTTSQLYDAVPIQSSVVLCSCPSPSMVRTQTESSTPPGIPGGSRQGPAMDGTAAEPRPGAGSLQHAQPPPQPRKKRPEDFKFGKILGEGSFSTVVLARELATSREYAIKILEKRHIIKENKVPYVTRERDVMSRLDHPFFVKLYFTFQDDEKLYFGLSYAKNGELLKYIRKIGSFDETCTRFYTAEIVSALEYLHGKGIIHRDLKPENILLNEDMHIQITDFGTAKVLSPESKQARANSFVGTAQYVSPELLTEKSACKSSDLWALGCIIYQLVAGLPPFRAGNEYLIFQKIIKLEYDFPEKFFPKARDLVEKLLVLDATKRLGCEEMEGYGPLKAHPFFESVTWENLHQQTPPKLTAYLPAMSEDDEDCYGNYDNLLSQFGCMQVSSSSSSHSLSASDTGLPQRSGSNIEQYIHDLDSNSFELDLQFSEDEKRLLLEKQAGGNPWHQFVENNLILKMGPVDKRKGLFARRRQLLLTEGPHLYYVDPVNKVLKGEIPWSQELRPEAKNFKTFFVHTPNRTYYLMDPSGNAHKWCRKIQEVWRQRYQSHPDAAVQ

[10] = target: T10, panel of 370 protein kinases (Homo sapiens, UniProt Q9Y572); settings: 2 h, kinase RIPK3; read-out: % Enzyme Activity (relative to DMSO controls)
T10 construct: purchased Reaction Biology Corporation (assay service)

[11] = target: T11, panel of 370 protein kinases (Homo sapiens, UniProt Q9UKE5); settings: 2 h, kinase TNIK; read-out: % Enzyme Activity (relative to DMSO controls)
T11 construct: purchased Reaction Biology Corporation (assay service)
T11 sequence (Q9UKE5 whole entry): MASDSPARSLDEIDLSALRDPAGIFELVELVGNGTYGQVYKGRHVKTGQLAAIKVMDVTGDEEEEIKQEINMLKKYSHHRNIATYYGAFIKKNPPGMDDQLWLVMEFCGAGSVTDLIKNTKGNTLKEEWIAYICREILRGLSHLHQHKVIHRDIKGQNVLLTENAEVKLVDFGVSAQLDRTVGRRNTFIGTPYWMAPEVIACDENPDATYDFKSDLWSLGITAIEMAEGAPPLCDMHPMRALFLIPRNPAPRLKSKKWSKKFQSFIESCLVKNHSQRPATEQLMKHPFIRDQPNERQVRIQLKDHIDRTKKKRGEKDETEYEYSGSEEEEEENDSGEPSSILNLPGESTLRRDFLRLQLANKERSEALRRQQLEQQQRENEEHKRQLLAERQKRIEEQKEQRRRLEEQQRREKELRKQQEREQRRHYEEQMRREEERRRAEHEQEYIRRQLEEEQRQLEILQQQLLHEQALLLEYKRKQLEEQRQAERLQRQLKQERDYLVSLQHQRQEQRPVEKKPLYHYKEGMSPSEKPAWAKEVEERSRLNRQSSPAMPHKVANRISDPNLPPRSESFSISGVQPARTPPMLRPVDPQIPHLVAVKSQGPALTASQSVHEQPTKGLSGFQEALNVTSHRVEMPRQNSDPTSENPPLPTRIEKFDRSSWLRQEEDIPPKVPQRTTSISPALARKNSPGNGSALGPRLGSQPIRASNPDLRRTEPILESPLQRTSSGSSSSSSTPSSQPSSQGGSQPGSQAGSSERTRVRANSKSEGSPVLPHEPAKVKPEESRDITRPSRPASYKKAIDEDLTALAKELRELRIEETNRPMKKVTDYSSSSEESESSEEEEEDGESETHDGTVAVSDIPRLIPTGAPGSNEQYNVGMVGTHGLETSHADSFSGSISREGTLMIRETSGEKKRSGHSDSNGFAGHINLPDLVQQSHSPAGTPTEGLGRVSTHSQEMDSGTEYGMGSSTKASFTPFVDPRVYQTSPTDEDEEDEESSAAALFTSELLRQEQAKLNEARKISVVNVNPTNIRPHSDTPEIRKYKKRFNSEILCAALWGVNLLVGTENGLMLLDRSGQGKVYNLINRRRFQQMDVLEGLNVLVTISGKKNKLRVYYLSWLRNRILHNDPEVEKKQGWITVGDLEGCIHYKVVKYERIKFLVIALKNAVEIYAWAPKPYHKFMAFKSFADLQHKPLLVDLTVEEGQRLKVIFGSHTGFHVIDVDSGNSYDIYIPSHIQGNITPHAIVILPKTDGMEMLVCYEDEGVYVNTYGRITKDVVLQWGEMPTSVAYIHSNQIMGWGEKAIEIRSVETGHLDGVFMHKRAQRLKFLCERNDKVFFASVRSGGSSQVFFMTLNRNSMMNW

[12] = target: T12, panel of 370 protein kinases (Homo sapiens, UniProt P28482); settings: 2 h, kinase ERK2/MAPK1; read-out: % Enzyme Activity (relative to DMSO controls)
T12 construct: purchased Reaction Biology Corporation (assay service)

[13] = target: T13, panel of 370 protein kinases (Homo sapiens, UniProt Q14289); settings: 2 h, kinase PYK2; read-out: % Enzyme Activity (relative to DMSO controls)
T13 construct: purchased Reaction Biology Corporation (assay service)

[14] = target: T14, panel of 370 protein kinases (Homo sapiens, UniProt Q14164); settings: 2 h, kinase IKKe/IKBKE; read-out: % Enzyme Activity (relative to DMSO controls)
T14 construct: purchased Reaction Biology Corporation (assay service)
T14 sequence (Q14164 whole entry): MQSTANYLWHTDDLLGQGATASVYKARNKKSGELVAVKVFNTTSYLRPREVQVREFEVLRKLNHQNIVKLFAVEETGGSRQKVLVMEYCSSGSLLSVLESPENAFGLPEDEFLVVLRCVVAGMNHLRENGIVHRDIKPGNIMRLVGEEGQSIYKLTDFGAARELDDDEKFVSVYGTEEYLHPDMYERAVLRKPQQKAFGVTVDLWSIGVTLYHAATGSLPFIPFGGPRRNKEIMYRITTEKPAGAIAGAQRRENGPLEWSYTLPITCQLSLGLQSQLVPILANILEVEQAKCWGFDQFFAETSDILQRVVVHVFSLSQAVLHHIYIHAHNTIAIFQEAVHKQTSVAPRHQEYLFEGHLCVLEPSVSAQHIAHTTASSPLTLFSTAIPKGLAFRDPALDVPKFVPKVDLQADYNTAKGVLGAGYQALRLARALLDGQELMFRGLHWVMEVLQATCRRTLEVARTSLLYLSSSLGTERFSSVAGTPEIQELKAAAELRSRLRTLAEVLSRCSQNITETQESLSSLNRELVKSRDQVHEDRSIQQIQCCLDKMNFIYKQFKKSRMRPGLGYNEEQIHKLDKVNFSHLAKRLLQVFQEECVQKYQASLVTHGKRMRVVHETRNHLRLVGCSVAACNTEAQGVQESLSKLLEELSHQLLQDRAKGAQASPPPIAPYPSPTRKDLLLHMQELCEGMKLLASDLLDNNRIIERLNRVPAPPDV

[15] = target: T15, panel of 370 protein kinases (Homo sapiens, UniProt P22607); settings: 2 h, kinase FGFR3; read-out: % Enzyme Activity (relative to DMSO controls)
T15 construct: purchased Reaction Biology Corporation (assay service)

[16] = target: T16, panel of 370 protein kinases (Homo sapiens, UniProt P30291); settings: 2 h, kinase WEE1; read-out: % Enzyme Activity (relative to DMSO controls)
T16 construct: purchased Reaction Biology Corporation (assay service)
T16 sequence (P30291 whole entry): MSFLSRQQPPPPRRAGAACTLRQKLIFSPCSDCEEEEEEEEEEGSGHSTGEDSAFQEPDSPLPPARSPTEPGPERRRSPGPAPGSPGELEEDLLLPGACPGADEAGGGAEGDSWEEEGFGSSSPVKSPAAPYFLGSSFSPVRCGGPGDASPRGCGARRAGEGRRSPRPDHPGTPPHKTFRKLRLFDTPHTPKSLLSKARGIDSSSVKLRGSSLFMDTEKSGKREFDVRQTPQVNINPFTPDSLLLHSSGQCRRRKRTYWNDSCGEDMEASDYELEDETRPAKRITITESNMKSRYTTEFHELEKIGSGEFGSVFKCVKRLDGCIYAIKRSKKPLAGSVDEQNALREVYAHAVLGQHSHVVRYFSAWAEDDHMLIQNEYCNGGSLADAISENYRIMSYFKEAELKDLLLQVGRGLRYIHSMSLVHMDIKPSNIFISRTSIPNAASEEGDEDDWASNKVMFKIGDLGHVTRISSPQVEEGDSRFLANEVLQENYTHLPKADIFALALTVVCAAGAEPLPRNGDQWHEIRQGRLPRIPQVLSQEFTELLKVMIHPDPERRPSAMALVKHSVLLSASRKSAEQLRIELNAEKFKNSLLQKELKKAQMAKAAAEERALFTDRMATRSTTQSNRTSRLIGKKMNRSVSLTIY

[17] = target: T17, panel of 370 protein kinases (Homo sapiens, UniProt O14920); settings: 2 h, kinase IKKb/IKBKB; read-out: % Enzyme Activity (relative to DMSO controls)
T17 construct: purchased Reaction Biology Corporation (assay service)

[18] = target: T18, panel of 370 protein kinases (Homo sapiens, UniProt P11802); settings: 2 h, read-out: % Enzyme Activity (relative to DMSO controls)
T18 construct: purchased Reaction Biology Corporation (assay service)
T18 sequence (P11802 whole entry): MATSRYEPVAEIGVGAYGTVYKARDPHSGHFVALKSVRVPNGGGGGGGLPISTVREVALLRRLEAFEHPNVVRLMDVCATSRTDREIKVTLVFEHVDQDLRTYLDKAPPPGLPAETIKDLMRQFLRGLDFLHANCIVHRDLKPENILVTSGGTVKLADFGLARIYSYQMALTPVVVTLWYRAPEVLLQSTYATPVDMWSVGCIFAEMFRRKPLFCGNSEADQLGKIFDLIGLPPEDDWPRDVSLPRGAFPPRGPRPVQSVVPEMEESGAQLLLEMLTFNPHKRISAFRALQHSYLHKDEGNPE

[19] = target: T19, panel of 370 protein kinases (Homo sapiens, UniProt P24941)
T19 construct: purchased Reaction Biology Corporation (assay service)

[20] = target: T20, panel of 370 protein kinases (Homo sapiens, UniProt Q15831); settings: 2 h, kinase LKB1; read-out: % Enzyme Activity (relative to DMSO controls)
T20 construct: purchased Reaction Biology Corporation (assay service)
T20 sequence (Q15831 whole entry): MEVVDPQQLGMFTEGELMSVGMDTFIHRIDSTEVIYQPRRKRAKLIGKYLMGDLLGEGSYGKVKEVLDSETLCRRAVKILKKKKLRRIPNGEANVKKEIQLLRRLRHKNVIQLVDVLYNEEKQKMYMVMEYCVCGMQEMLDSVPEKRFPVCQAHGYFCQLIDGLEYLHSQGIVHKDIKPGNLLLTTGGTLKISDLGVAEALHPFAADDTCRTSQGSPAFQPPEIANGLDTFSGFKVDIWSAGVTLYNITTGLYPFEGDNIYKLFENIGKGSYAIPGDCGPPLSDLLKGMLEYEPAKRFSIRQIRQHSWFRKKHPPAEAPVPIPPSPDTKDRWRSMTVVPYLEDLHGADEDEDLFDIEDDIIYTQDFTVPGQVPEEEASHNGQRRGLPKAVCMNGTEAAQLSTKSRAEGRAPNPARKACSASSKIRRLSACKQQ

SMILES: CCN1CCN(C(=O)c2ccc(Nc3ncc(F)c(-c4ccc5nc(N(C)C)sc5c4)n3)nc2)CC1 [YK-2-69]
- remaining activity at 1 µM [1]: 94.5%
- remaining activity at 1 µM [2]: 101%
- remaining activity at 1 µM [3]: 91.2%
- remaining activity at 1 µM [4]: 95.6%
- remaining activity at 1 µM [5]: 98.6%
- remaining activity at 1 µM [6]: 97.9%
- remaining activity at 1 µM [7]: 106%
- remaining activity at 1 µM [8]: 101%
- remaining activity at 1 µM [9]: 100%
- remaining activity at 1 µM [10]: 102%
- remaining activity at 1 µM [11]: 70.5%
- remaining activity at 1 µM [12]: 101%
- remaining activity at 1 µM [13]: 110%
- remaining activity at 1 µM [14]: 98.5%
- remaining activity at 1 µM [15]: 94%
- remaining activity at 1 µM [16]: 98.5%
- remaining activity at 1 µM [17]: 96%
- remaining activity at 1 µM ([18]; kinase CDK4/cyclin D1): 6.13%
- remaining activity at 1 µM ([18]; kinase CDK4/cyclin D3): 11.2%
- % Enzyme Activity (relative to DMSO controls) ([19]; kinase CDK2/CYCLIN A): 90.79% and 87.87%
- % Enzyme Activity (relative to DMSO controls) ([19]; kinase CDK2/CYCLIN E): 95.30% and 94.87%
- % Enzyme Activity (relative to DMSO controls) ([19]; kinase CDK2/Cyclin A1): 80.25% and 75.26%
- % Enzyme Activity (relative to DMSO controls) ([19]; kinase CDK2/cyclin E2): 104.31% and 100.73%
- % Enzyme Activity (relative to DMSO controls) ([19]; kinase CDK2/cyclin O): 78.97% and 75.52%
- remaining activity at 1 µM [20]: 111%
